Experimental data reported in paper PMC9130538, “Amino acids in transmembrane helix 1 confer major functional differences between human and mouse orthologs of the polyspecific membrane transporter OCT1” (The Journal of Biological Chemistry, 2022).

Legend:
[1] = target: T1, human OCT1 with mouse TMH1 (human–mouse chimeric OCT1) (Homo sapiens, UniProt O15245, A31S/C36Y/F32L/I24L/L28I); experiment: Uptake by HEK293 cells transiently overexpressing chimeric human OCT1 carrying mouse TMH1; assay type: cell-based; settings: 200 μM trospium, 2 min, transient transfection
T1 construct: expressed in transfected cells
Procedure: (§1) Human–mouse chimeric OCT1 constructs were generated using the overlap extension method ([50]) and have been characterized before ([34]). […] All constructs were validated by capillary sequencing of the complete open reading frame of OCT1 before transfection into HEK293 cells.
(§2) For transient transfection of OCT1 constructs into HEK293 cells for uptake experiments, 5 × 10^5 T-REx-293 cells (Life Technologies) were seeded per well in 12-well plates precoated with poly-D-lysine. […] At 48 h later, transfection efficacy was assessed microscopically by visualizing the GFP signal of the cotransfected GFP vector, and the cells were subsequently used for uptake experiments. […]
(§3) Cellular uptake experiments were performed at 37 °C and pH 7.4 using HBSS supplemented with 10 mM Hepes (in the following referred to as HBSS+). […] Cells were washed twice with 2 ml ice-cold HBSS+ and lysed with 80% acetonitrile supplemented with internal standard, 0.1 N NaOH/0.1% SDS, or radioimmunoprecipitation buffer for LC–MS/MS, liquid scintillation counting, or fluorescence spectroscopy detection, respectively. Intracellular substrate concentrations were measured as described in the following and were then normalized to the amount of total protein in the samples as measured using the bicinchoninic acid assay ([51]). […]

human OCT1 Phe32Leu = target: T2, human OCT1 Phe32Leu (Homo sapiens, UniProt O15245, F32L); experiment: Uptake by HEK293 cells overexpressing Phe32Leu human OCT1; assay type: cell-based; settings: 200 μM trospium, 2 min, transient transfection, versus human wildtype
T2 construct: expressed in transfected cells
Procedure: as §1, §2, §3

[2] = human, estimated based on clinical data, ref [39]; cited from earlier work
human OCT1 = target: T3, human OCT1 (Homo sapiens, UniProt O15245); experiment: Cellular uptake by HEK293 cells overexpressing human OCT1 (wildtype)
T3 sequence (O15245 1-554): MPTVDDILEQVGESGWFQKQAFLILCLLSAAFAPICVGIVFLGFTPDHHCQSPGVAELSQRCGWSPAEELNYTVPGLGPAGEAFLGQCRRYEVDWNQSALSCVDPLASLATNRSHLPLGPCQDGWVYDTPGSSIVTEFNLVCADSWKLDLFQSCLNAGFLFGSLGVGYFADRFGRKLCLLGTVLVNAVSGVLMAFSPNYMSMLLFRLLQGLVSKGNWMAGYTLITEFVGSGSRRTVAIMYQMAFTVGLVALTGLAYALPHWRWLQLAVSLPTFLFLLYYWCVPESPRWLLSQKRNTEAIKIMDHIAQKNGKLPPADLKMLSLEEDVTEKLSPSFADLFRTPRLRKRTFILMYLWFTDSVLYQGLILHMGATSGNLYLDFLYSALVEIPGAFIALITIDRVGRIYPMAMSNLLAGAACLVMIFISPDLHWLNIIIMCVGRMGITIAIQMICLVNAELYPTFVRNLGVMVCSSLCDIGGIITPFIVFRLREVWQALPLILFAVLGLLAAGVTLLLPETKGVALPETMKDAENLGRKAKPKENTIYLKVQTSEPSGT
Procedure: Generation and characterization of these cell lines has been described in detail before ([34], [48], [49]). Cells were cultured in Dulbecco’s Modified Eagle’s Medium supplemented with 10% fetal bovine serum, 100 U/ml penicillin, and 100 μg/ml streptomycin at 37 °C and 5% CO2 and were passaged twice a week.
At 48 h prior to the experiment, 6 × 10^5 cells were seeded per well in 12-well plates. When using transiently transfected cells, 5 × 10^5 T-REx-293 cells (Life Technologies) were seeded per well in 12-well plates 72 h prior to the experiment, and they were transfected 24 h later as described previously. Twelve-well plates were precoated with poly-D-lysine.
Cellular uptake experiments were performed at 37 °C and pH 7.4 using HBSS supplemented with 10 mM Hepes (in the following referred to as HBSS+). Cells were washed with 1 ml prewarmed (37 °C) HBSS+, and the uptake was initiated by adding 400 μl of prewarmed HBSS+ containing the substrate. Uptake was allowed for exactly 2 min and afterward stopped by adding 2 ml ice-cold HBSS+. Cells were washed twice with 2 ml ice-cold HBSS+ and lysed with 80% acetonitrile supplemented with internal standard, 0.1 N NaOH/0.1% SDS, or radioimmunoprecipitation buffer for LC–MS/MS, liquid scintillation counting, or fluorescence spectroscopy detection, respectively. Intracellular substrate concentrations were measured as described in the following and were then normalized to the amount of total protein in the samples as measured using the bicinchoninic acid assay ([51]).
For LC–MS/MS quantification of intracellular substrate concentrations, the cell lysate was centrifuged at 16,000g for 15 min, and 350 μl of supernatant was evaporated to dryness under nitrogen flow at 40 °C. The sample was reconstituted with 200 μl 0.1% formic acid, and between 2 and 30 μl were injected into the LC–MS/MS system (Table S1).
An API4000 QTRAP tandem mass spectrometer with ESI interface (AB SCIEX) was used, coupled to a Shimadzu Nexera X2 UHPLC system with LC 30AD pumps and SiL 30AC autosampler (Shimadzu).
Intracellular concentrations of radioactively labeled substrates MPP^+ and TEA^+ were quantified using liquid scintillation counting. To this end, 400 μl cell lysate was transferred into a 20 ml scintillation vial, 9 ml Aquasafe 500 Plus liquid scintillator (both Zinsser Analytics) was added, and the sample was measured in the Scintillation Counter LS6500 (Beckman Coulter).
For both analyses, SPSS Statistics, version 28 (SPSS, Inc, IBM) was used.

mouse Oct1 Leu32Phe = target: T4, mouse Oct1 Leu32Phe (Mus musculus, UniProt O08966, L32F); experiment: Uptake by HEK293 cells overexpressing Leu32Phe mouse Oct1; assay type: cell-based; settings: 200 μM trospium, 2 min, transient transfection
T4 construct: expressed in transfected cells
Procedure: as §1, §2, §3

human OCT1 Cys36Tyr = target: T5, human OCT1 Cys36Tyr (Homo sapiens, UniProt O15245, C36Y); experiment: Uptake by HEK293 cells overexpressing Cys36Tyr human OCT1; assay type: cell-based; settings: 200 μM trospium, 2 min, transient transfection
T5 construct: expressed in transfected cells
Procedure: as §1, §2, §3

[3] = human versus mouse OCT1, stably transfected HEK293

T4 sequence (O08966 whole entry L32F): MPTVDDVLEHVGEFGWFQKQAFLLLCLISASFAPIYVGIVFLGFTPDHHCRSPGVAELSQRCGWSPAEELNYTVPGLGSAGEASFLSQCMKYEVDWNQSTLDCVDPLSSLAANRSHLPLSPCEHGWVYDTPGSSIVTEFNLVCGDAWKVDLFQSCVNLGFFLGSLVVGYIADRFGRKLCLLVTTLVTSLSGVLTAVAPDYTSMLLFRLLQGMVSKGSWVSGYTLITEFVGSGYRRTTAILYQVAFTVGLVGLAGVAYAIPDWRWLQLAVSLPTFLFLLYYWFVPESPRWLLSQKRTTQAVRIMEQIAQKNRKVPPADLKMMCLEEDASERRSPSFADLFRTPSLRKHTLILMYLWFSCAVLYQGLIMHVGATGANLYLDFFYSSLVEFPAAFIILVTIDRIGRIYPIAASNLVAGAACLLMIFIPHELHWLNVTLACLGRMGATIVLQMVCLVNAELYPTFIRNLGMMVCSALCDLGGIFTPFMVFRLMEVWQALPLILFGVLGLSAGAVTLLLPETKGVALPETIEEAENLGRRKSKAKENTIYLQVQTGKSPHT

Compound: O=C(O[C@H]1C[C@H]2CC[C@@H](C1)[N+]21CCCC1)C(O)(c1ccccc1)c1ccccc1 [Trospium]
- decrease of trospium uptake compared with human wildtype [1]: 91%
- decrease of trospium uptake by Phe32Leu in human OCT1 (human OCT1 Phe32Leu): 79%
- clinically relevant (plasma) concentration [2]: 13.3 nM
- difference in uptake between human and mouse OCT1 at low concentration (human OCT1; 100 nM, 2 min, stably transfected HEK293): did not see differences in uptake
- fold higher capacity (vmax) of human OCT1 than mouse Oct1 (human OCT1; [3]): 9.0 fold
- fold lower affinity (KM) of human OCT1 than mouse Oct1 (higher affinity of mouse Oct1) (human OCT1; [3]): 10.6 fold
- trospium uptake exceeding the uptake of the human ortholog (mouse Oct1 Leu32Phe; versus human wildtype OCT1): 2.8 fold
- increase of trospium uptake by Leu32Phe in mouse Oct1 (mouse Oct1 Leu32Phe; versus mouse wildtype): sevenfold
- effect of Cys36Tyr on uptake of trospium (human OCT1 Cys36Tyr): did not affect
